Results from patent US12344618B2, “Heterotricyclic derivative compound and use of same” (HANMI PHARMACEUTICAL CO., LTD., priority 2019, dated 2025).

The compounds below were run against EZH2 (Homo sapiens, UniProt Q15910) (assay: Inhibitory activity against EZH2 methyltransferase (radiometric scintillation proximity assay)). Conditions: Enzyme inhibitory activity (IC50, nM) EZH2, 2.3 nmol/L enzyme, 90 minutes, room temperature.
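Throughout, for IC50: Read-out is substrate peptide methylation, captured on streptavidin-coated SPA beads and counted by scintillation, with the reaction run in Tris-HCl buffer at pH 8.0 containing 1% DMSO.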
Method: The inhibitory activities of the synthetic compounds against EZH1 or EZH2 methyltransferase were measured. The experiment was conducted by Reaction Biology Corp., and the activity of EZH1 or EZH2 was measured using a radiometric scintillation proximity assay. […] The reaction buffer consisted of 50 mmol/L Tris-HCl (pH 8.0), 50 mmol/L NaCl, 1 mmol/L EDTA, 1 mmoL/L DTT, 1 mmol/L PMSF, and 1% DMSO. Trichloroacetic acid was added to terminate the reaction, and PVT streptavidin-coated SPA beads were added to each reaction solution, followed by further reaction at room temperature for 1 hour again. The methylation value of the substrate peptide was measured using the TopCount NXT plate reader.

Sequence of EZH2 (Q15910 whole entry): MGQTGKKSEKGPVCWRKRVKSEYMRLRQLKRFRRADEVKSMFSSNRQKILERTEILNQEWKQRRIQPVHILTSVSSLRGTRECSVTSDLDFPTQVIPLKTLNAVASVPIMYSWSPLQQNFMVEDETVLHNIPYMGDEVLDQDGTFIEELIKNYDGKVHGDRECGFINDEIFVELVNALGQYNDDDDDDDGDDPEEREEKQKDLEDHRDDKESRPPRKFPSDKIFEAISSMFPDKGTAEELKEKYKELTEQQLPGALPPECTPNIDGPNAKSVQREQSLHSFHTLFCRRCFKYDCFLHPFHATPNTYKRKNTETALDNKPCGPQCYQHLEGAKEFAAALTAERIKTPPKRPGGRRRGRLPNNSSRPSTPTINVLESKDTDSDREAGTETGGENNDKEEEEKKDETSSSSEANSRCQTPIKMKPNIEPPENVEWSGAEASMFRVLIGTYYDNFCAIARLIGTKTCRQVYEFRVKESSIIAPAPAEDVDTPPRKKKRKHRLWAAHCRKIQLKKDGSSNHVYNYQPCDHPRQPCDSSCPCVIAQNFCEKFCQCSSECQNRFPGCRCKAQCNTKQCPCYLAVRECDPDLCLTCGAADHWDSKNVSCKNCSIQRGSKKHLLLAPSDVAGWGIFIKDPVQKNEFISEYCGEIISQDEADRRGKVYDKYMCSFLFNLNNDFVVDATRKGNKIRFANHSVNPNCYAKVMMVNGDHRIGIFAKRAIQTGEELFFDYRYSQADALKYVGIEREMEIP
Sequence of EZH2 (O75530 whole entry partner): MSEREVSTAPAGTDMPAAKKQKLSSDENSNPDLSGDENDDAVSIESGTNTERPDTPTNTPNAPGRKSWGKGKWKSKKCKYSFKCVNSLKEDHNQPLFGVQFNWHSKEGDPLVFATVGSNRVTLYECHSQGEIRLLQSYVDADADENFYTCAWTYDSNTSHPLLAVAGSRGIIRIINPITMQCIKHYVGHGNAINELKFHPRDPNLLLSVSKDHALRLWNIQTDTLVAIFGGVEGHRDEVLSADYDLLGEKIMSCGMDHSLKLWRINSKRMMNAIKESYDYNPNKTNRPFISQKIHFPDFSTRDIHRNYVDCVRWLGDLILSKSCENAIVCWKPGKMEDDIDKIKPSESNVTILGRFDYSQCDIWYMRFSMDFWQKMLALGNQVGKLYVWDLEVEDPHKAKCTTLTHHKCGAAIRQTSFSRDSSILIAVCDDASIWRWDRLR
Sequence of EZH2 (Q15022 whole entry partner): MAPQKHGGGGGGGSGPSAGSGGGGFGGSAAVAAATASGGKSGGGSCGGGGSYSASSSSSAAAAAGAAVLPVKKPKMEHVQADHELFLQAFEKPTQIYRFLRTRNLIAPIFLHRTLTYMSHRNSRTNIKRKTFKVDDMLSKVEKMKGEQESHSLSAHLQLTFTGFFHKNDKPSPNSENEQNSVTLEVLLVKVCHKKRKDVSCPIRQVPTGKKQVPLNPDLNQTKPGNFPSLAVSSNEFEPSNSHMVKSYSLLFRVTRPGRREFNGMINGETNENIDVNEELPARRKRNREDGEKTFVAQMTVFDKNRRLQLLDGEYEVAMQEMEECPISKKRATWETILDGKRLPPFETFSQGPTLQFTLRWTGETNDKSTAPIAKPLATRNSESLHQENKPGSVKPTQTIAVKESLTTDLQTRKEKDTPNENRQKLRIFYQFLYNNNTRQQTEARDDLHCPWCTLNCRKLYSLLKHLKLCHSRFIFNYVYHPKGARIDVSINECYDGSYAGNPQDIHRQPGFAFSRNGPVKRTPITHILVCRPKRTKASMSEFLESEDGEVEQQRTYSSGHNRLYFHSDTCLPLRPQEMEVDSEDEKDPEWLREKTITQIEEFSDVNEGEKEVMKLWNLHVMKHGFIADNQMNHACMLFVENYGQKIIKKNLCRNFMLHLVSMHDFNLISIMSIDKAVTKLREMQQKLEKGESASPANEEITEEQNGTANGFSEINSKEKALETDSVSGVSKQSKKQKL
Sequence of EZH2 (Q09028 whole entry partner): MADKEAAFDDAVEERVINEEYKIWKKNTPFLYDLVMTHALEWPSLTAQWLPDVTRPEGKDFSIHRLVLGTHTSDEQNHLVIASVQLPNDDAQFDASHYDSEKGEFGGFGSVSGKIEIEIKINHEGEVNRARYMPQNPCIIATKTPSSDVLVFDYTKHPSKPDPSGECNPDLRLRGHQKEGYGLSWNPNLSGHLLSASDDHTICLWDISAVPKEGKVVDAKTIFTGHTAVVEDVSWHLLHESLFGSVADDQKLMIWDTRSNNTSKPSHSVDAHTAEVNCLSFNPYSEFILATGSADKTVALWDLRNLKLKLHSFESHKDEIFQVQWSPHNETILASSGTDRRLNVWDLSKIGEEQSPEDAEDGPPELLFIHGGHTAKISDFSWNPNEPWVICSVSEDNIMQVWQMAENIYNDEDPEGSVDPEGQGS
Sequence of EZH2 (Q6ZN18 whole entry partner): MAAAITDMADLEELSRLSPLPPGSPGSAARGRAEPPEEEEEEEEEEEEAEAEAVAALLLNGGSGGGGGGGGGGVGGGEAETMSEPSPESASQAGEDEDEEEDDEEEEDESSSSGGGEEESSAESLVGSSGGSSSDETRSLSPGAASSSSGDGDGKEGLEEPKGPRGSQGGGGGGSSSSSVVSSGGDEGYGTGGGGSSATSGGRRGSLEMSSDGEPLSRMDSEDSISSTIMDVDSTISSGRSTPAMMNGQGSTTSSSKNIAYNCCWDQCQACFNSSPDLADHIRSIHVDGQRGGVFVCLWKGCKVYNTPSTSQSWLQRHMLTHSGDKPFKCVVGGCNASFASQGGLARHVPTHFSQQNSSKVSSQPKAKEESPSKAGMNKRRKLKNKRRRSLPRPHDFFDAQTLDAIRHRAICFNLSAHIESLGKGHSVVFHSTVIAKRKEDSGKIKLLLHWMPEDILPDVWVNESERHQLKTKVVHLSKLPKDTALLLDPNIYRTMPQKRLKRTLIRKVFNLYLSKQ

Row | Structure (SMILES) | IC50 [nM]
1 | Cc1cc(C)c(CN2CCc3c(Cl)c4c(c(C)c3C2=O)OC(C)([C@H]2CC[C@H](N)CC2)O4)c(=O)[nH]1 (stereo partly drawn) [Compound 8, 2-(trans-4-aminocyclohexyl)-9-chloro-6-((4,6-dimethyl-2-oxo-1,2-dihydropyridin-3-yl)methyl)-2,4-dimethyl-7,8-dihydro-[1,3]dioxolo[4,5-g]isoquinolin-5(6H)-one] | 3.2
2 | CC[C@H](O)C(=O)N[C@H]1CC[C@H](C2(C)Oc3c(C)c4c(c(Cl)c3O2)CCN(Cc2c(C)cc(C)[nH]c2=O)C4=O)CC1 (stereo partly drawn) [Compound 19] | 4.4

What follows are compounds tested on KARPAS-422 (EZH2 Y641N mutation) (assay: Cell growth inhibition test, KARPAS-422). Conditions: Homo sapiens, KARPAS-422, 168 h, KARPAS-422, culture time 7 days; read-out: Cell growth inhibitory activity (GI50, nM) KARPAS-422 (EZH2 Y641N mutation).
Format: cell-based
Method: Each type of the cultured cells was seeded in 6-well plates or 48-96 well plates, and subculture or medium replacement was performed every 3 to 4 days. Next, the cells were subcultured for a total of 7 to 14 days, and then seeded in 96-well plates. 3 to 5 days before the measurement of the effect, the cells were seeded in 96-well plates, and then the absorbance (Tz) on the day of seeding was measured. The absorbance after the reaction was measured by the plate reader device Synergy NeoAlpha (Biotek) using Cell-Titer-Glo Cell Viability Assay (Promega, G7573) according to the attached manual. Based on the absorbance (Tz) measured on the seeding day and the absorbance of each of the DMSO-treated group (C) and the sample-added group (Ti) measured on the day of effect determination, the percentage of cell proliferation inhibition was calculated according to the following Equation 1. [(Ti−Tz)/(C−Tz)]×100 for concentrations for which Ti≥Tz […] for concentrations for which Ti<Tz. [Equation 1]

Row | Structure (SMILES) | GI50 [nM]
3 | Cc1cc(C)c(CN2CCc3c(Cl)c4c(c(C)c3C2=O)OC(C)([C@@H]2CCC[C@H](N(C)C)C2)O4)c(=O)[nH]1 (relative stereo) [Compound 36, 9-chloro-6-((4,6-dimethyl-2-oxo-1,2-dihydropyridin-3-yl)methyl)-2-(cis-3-(dimethylamino)cyclohexyl)-2,4-dimethyl-7,8-dihydro-[1,3]dioxolo[4,5-g]isoquinolin-5(6H)-one] | 87
4 | Cc1cc(C)c(CN2CCc3c(Cl)c4c(c(C)c3C2=O)OC(C)([C@@H]2CC[C@H](N(C)C)C2)O4)c(=O)[nH]1 (relative stereo) [Compound 37, 9-chloro-6-((4,6-dimethyl-2-oxo-1,2-dihydropyridin-3-yl)methyl)-2-(cis-3-(dimethylamino)cyclopentyl)-2,4-dimethyl-7,8-dihydro-[1,3]dioxolo[4,5-g]isoquinolin-5(6H)-one] | 22
5 | Cc1cc(C)c(CN2CCc3c(cc4c(c3C)OC(C)([C@H]3CC[C@H](N(C)C)CC3)O4)C2=O)c(=O)[nH]1 (stereo partly drawn) [Compound 3, 6-((4,6-dimethyl-2-oxo-1,2-dihydropyridin-3-yl)methyl)-2-(trans-4-(dimethylamino)cyclohexyl)-2,9-dimethyl-7,8-dihydro-[1,3]dioxolo[4,5-g]isoquinolin-5(6H)-one] | 39
6 | Cc1cc(C)c(CN2CCc3c(Cl)c4c(c(C)c3C2=O)OC(C)([C@H]2CC[C@H](N)CC2)O4)c(=O)[nH]1 (stereo partly drawn) [Compound 8, 2-(trans-4-aminocyclohexyl)-9-chloro-6-((4,6-dimethyl-2-oxo-1,2-dihydropyridin-3-yl)methyl)-2,4-dimethyl-7,8-dihydro-[1,3]dioxolo[4,5-g]isoquinolin-5(6H)-one] | 13
7 | CC[C@H](O)C(=O)N[C@H]1CC[C@H](C2(C)Oc3c(C)c4c(c(Cl)c3O2)CCN(Cc2c(C)cc(C)[nH]c2=O)C4=O)CC1 (stereo partly drawn) [Compound 19] | 440
8 | Cc1cc(C)c(CN2CCc3c(Cl)c4c(c(C)c3C2=O)OC(C)(c2ccc3c(ccn3C)c2)O4)c(=O)[nH]1 (stereo not drawn) [Compound 32, 9-chloro-6-((4,6-dimethyl-2-oxo-1,2-dihydropyridin-3-yl)methyl)-2,4-dimethyl-2-(1-methyl-1H-indol-5-yl)-7,8-dihydro-[1,3]dioxolo[4,5-g]isoquinolin-5(6H)-one] | > 1000
9 | CO[C@H]1CC[C@H](C2(C)Oc3c(C)c4c(c(Cl)c3O2)CCN(Cc2c(C)cc(C)[nH]c2=O)C4=O)CC1 (stereo partly drawn) [Compound 33, 9-chloro-6-((4,6-dimethyl-2-oxo-1,2-dihydropyridin-3-yl)methyl)-2-(trans-4-methoxycyclohexyl)-2,4-dimethyl-7,8-dihydro-[1,3]dioxolo[4,5-g]isoquinolin-5(6H)-one] | 187
10 | Cc1cc(C)c(CN2CCc3c(Cl)c4c(c(C)c3C2=O)OC(C)([C@H]2C[C@H](N(C)C)C2)O4)c(=O)[nH]1 (stereo partly drawn) [Compound 35, 9-chloro-6-((4,6-dimethyl-2-oxo-1,2-dihydropyridin-3-yl)methyl)-2-(trans-3-(dimethylamino)cyclobutyl)-2,4-dimethyl-7,8-dihydro-[1,3]dioxolo[4,5-g]isoquinolin-5(6H)-one] | 57
11 | Cc1cc(C)c(CN2CCc3c(c(C)c4c(c3-c3ccccc3)OC(C)([C@H]3CC[C@H](N(C)C)CC3)O4)C2=O)c(=O)[nH]1 (stereo partly drawn) [Compound 56, 6-((4,6-dimethyl-2-oxo-1,2-dihydropyridin-3-yl)methyl)-2-(trans-4-(dimethylamino)cyclohexyl)-2,4-dimethyl-9-phenyl-7,8-dihydro-[1,3]dioxolo[4,5-g]isoquinolin-5(6H)-one] | 11
12 | Cc1cc(C)c(CN2CCc3c(c(C)c4c(c3C3=CCCC3)OC(C)([C@H]3CC[C@H](N(C)C)CC3)O4)C2=O)c(=O)[nH]1 (stereo partly drawn) [Compound 57, 9-(cyclopent-1-en-1-yl)-6-((4,6-dimethyl-2-oxo-1,2-dihydropyridin-3-yl)methyl)-2-(trans-4-(dimethylamino)cyclohexyl)-2,4-dimethyl-7,8-dihydro-[1,3]dioxolo[4,5-g]isoquinolin-5(6H)-one] | 13
13 | Cc1cc(C)c(CN2CCc3c(c(C)c4c(c3C3CCCC3)OC(C)([C@H]3CC[C@H](N(C)C)CC3)O4)C2=O)c(=O)[nH]1 (stereo partly drawn) [Compound 58, 9-cyclopentyl-6-((4,6-dimethyl-2-oxo-1,2-dihydropyridin-3-yl)methyl)-2-(trans-4-(dimethylamino)cyclohexyl)-2,4-dimethyl-7,8-dihydro-[1,3]dioxolo[4,5-g]isoquinolin-5(6H)-one] | 13
14 | Cc1cc(C)c(CN2CCc3c(c(C)c4c(c3C3=CCCCC3)OC(C)([C@H]3CC[C@H](N(C)C)CC3)O4)C2=O)c(=O)[nH]1 (stereo partly drawn) [Compound 59, 9-(cyclohex-1-en-1-yl)-6-((4,6-dimethyl-2-oxo-1,2-dihydropyridin-3-yl)methyl)-2-(trans-4-(dimethylamino)cyclohexyl)-2,4-dimethyl-7,8-dihydro-[1,3]dioxolo[4,5-g]isoquinolin-5(6H)-one] | 28
15 | Cc1cc(C)c(CN2CCc3c(c(C)c4c(c3C3CCCCC3)OC(C)([C@H]3CC[C@H](N(C)C)CC3)O4)C2=O)c(=O)[nH]1 (stereo partly drawn) [Compound 60, 9-cyclohexyl-6-((4,6-dimethyl-2-oxo-1,2-dihydropyridin-3-yl)methyl)-2-(trans-4-(dimethylamino)cyclohexyl)-2,4-dimethyl-7,8-dihydro-[1,3]dioxolo[4,5-g]isoquinolin-5(6H)-one] | 28
16 | C=C(C)c1c2c(c(C)c3c1OC(C)([C@H]1CC[C@H](N(C)C)CC1)O3)C(=O)N(Cc1c(C)cc(C)[nH]c1=O)CC2 (stereo partly drawn) [Compound 61, 6-((4,6-dimethyl-2-oxo-1,2-dihydropyridin-3-yl)methyl)-2-(trans-4-(dimethylamino)cyclohexyl)-2,4-dimethyl-9-(prop-1-en-2-yl)-7,8-dihydro-[1,3]dioxolo[4,5-g]isoquinolin-5(6H)-one] | 4.8
17 | Cc1cc(C)c(CN2CCc3c(c(C)c4c(c3C(C)C)OC(C)([C@H]3CC[C@H](N(C)C)CC3)O4)C2=O)c(=O)[nH]1 (stereo partly drawn) [Compound 62, 6-((4,6-dimethyl-2-oxo-1,2-dihydropyridin-3-yl)methyl)-2-(trans-4-(dimethylamino)cyclohexyl)-9-isopropyl-2,4-dimethyl-7,8-dihydro-[1,3]dioxolo[4,5-g]isoquinolin-5(6H)-one] | 6.2
18 | CCc1c2c(c(C)c3c1OC(C)([C@H]1CC[C@H](N(C)C)CC1)O3)C(=O)N(Cc1c(C)cc(C)[nH]c1=O)CC2 (stereo partly drawn) [Compound 63, 6-((4,6-dimethyl-2-oxo-1,2-dihydropyridin-3-yl)methyl)-2-(trans-4-(dimethylamino)cyclohexyl)-9-ethyl-2,4-dimethyl-7,8-dihydro-[1,3]dioxolo[4,5-g]isoquinolin-5(6H)-one] | 4.4
19 | Cc1cc(C)c(CN2CCc3c(c(C)c4c(c3-c3ccco3)OC(C)([C@H]3CC[C@H](N(C)C)CC3)O4)C2=O)c(=O)[nH]1 (stereo partly drawn) [Compound 64, 6-((4,6-dimethyl-2-oxo-1,2-dihydropyridin-3-yl)methyl)-2-(trans-4-(dimethylamino)cyclohexyl)-9-(furan-2-yl)-2,4-dimethyl-7,8-dihydro-[1,3]dioxolo[4,5-g]isoquinolin-5(6H)-one] | 5
20 | Cc1cc(C)c(CN2CCc3c(c(C)c4c(c3C3=CCOCC3)OC(C)([C@H]3CC[C@H](N(C)C)CC3)O4)C2=O)c(=O)[nH]1 (stereo partly drawn) [Compound 65] | 8.8
21 | Cc1cc(C)c(CN2CCc3c(c(C)c4c(c3-c3cccnc3)OC(C)([C@H]3CC[C@H](N(C)C)CC3)O4)C2=O)c(=O)[nH]1 (stereo partly drawn) [Compound 66, 6-((4,6-dimethyl-2-oxo-1,2-dihydropyridin-3-yl)methyl)-2-(trans-4-(dimethylamino)cyclohexyl)-2,4-dimethyl-9-(pyridin-3-yl)-7,8-dihydro-[1,3]dioxolo[4,5-g]isoquinolin-5(6H)-one] | 6.4
22 | Cc1cc(C)c(CN2CCc3c(c(C)c4c(c3-c3cncs3)OC(C)([C@H]3CC[C@H](N(C)C)CC3)O4)C2=O)c(=O)[nH]1 (stereo partly drawn) [Compound 67, 6-((4,6-dimethyl-2-oxo-1,2-dihydropyridin-3-yl)methyl)-2-(trans-4-(dimethylamino)cyclohexyl)-2,4-dimethyl-9-(thiazol-5-yl)-7,8-dihydro-[1,3]dioxolo[4,5-g]isoquinolin-5(6H)-one] | 4.3
23 | Cc1cc(C)c(CN2CCc3c(c(C)c4c(c3-c3cnn(C)c3)OC(C)([C@H]3CC[C@H](N(C)C)CC3)O4)C2=O)c(=O)[nH]1 (stereo partly drawn) [Compound 68, 6-((4,6-dimethyl-2-oxo-1,2-dihydropyridin-3-yl)methyl)-2-(trans-4-(dimethylamino)cyclohexyl)-2,4-dimethyl-9-(1-methyl-1H-pyrazol-4-yl)-7,8-dihydro-[1,3]dioxolo[4,5-g]isoquinolin-5 (6H)-one] | 5.1

Same assay, conditions: KARPAS-422, culture time 7 days; read-out: Cell growth inhibitory activity (GI50, nM) KARPAS-422 (EZH2 Y641N mutation)

Row | Structure (SMILES) | GI50 [nM]
24 | Cc1cc(C)c(CN2CCc3c(C)c4c(c(Cl)c3C2=O)OC(C)([C@H]2CC[C@H](N(C)C)CC2)O4)c(=O)[nH]1 (single isomer, unassigned) [Compound 6, 4-chloro-6-((4,6-dimethyl-2-oxo-1,2-dihydropyridin-3-yl)methyl)-2-(trans-4-(dimethylamino)cyclohexyl)-2,9-dimethyl-7,8-dihydro-[1,3]dioxolo[4,5-g]isoquinolin-5(6H)-one] | 310
